{"source": "patent US8524917B2", "about": "“6-substituted indole-3-carboxylic acid amide compounds having sphingosine-1-phosphate (S1P) receptor antagonist biological activity” (Allergan, Inc., priority 2007, dated 2013)", "origin": "cited, not measured here", "test_system": "perfused porcine eyes", "settings": "by altering paracellular permeability, IOVS 45, 2263, 2004; cited from earlier work", "data": [{"compound": "CCCCCCCCCCCCC/C=C/[C@@H](O)[C@@H](N)COP(=O)(O)O", "note": "[Compound S1P, Sphingosine-1-Phosphate]", "values": [{"measurement": "decrease of outflow facility", "value": "> 30", "unit": "%"}]}]}
